This assay concerns PBMCs. In words: LPS-induced TNFα/IL-8 release in PBMC cells. The assay is classed as cell-based. The settings on record: Homo sapiens, assay (b), read-out: IC50 Values for Inhibition of Cytokine Release PBMCs IL-8. The method, then:
Peripheral blood mononuclear cells (PBMCs) from healthy subjects are separated from whole blood using a density gradient (Lymphoprep, Axis-Shield Healthcare). The PBMCs are seeded in 96 well plates and treated with compounds at the desired concentration for 2 hours before addition of 1 ng/mL LPS (Escherichia Coli 0111:B4 from Sigma Aldrich) for 24 hours under normal tissue culture conditions (37° C., 5% CO2). The supernatant is harvested for determination of IL-8 and TNFα concentrations by sandwich ELISA (Duo-set, R&D systems) and read on the fluorescence microplate reader (Varioskan® Flash, ThermoFisher Scientific).

pIC50: −log10 of the molar value.

With `COc1cc(Nc2cc(Oc3ccc(NC(=O)Nc4cc(C(C)(C)C)cc(NS(C)(=O)=O)c4OC)c4ccccc34)ccn2)cc(C(=O)NCCN2CC[S+]([O-])CC2)c1` [85(j), 3-[[4-[[4-[[5-tert-Butyl-3-(methanesulfonamido)-2-methoxyphenyl]-carbamoylamino]-1-naphthyl]oxy]-2-pyridyl]amino]-5-methoxy-N-[2-(1-oxo-1,4-thiazinan-4-yl)ethyl]benzamide], the pIC50 was 8.68. The same measure for `C#Cc1cc(Nc2nccc(Oc3ccc(NC(=O)Nc4cc(C(C)(C)C)cc(C(=O)NC)c4OC)c4ccccc34)n2)cc(C(=O)N[C@@H](C)CN2CCOCC2)c1` [Example 60, (S)-5-(tert-Butyl)-3-(3-(4-((2-((3-ethynyl-5-((1-morpholinopropan-2-yl)carbamoyl)phenyl)amino)pyrimidin-4-yl)oxy)naphthalen-1-yl)ureido)-2-methoxy-N-methylbenzamide]: 8.70; for `COc1c(NC(=O)Nc2ccc(Oc3ccnc(Nc4ccccc4)c3)c3ccccc23)cc(C(C)(C)C)cc1C(=O)NC1CCN(C)CC1` [84(b), 3-[[4-[(2-Anilino-4-pyridyl)oxy]-1-naphthyl]carbamoylamino]-5-tert-butyl-2-methoxy-N-(1-methyl-4-piperidyl)benzamide]: 8.04. As to `COc1cc(Nc2cc(Oc3ccc(NC(=O)Nc4cc(C(C)(C)C)cc(NS(C)(=O)=O)c4OC)c4ccccc34)ccn2)cc(C(=O)NCCN2CCCCC2)c1` [83(e), 3-((4-((4-(3-(5-(tert-butyl)-2-methoxy-3-(methylsulfonamido)phenyl)ureido)naphthalen-1-yl)oxy)pyridin-2-yl)amino)-5-methoxy-N-(2-(piperidin-1-yl)ethyl)benzamide], the pIC50 was 8.10. With `COc1c(NC(=O)Nc2ccc(Oc3ccnc(Nc4ccccc4)n3)c3ccccc23)cc(C(C)(C)C)cc1C(=O)NC1COC1` [Example 78, 5-(tert-Butyl)-2-methoxy-N-(oxetan-3-yl)-3-(3-(4-((2-(phenylamino)pyrimidin-4-yl)oxy)-naphthalen-1-yl)ureido)benzamide], the negative-log IC50 (pIC50) was 7.85. Then `COc1cc(Nc2cc(Oc3ccc(NC(=O)Nc4cc(C(C)(C)C)cc(NS(C)(=O)=O)c4OC)c4ccccc34)ccn2)cc(C(=O)NCCN2CCCC2)c1` [83(d), 3-((4-((4-(3-(5-(tert-butyl)-2-methoxy-3-(methylsulfonamido)phenyl)ureido)naphthalen-1-yl)oxy)pyridin-2-yl)amino)-5-methoxy-N-(2-(pyrrolidin-1-yl)ethyl)benzamide], with 7.92. Then `CNC(=O)c1cc(N2CCOCC2)cc(NC(=O)Nc2ccc(Oc3ccnc(Nc4cc(OC)cc(OCCOCCOCCOC)c4)n3)c3ccccc23)c1OC` [Example 32, 2-Methoxy-3-(3-(4-((2-((3-methoxy-5-(2-(2-(2-methoxyethoxy)ethoxy)ethoxy)phenyl)-amino)pyrimidin-4-yl)oxy)naphthalen-1-yl)ureido)-N-methyl-5-morpholinobenzamide], with 8.11; and `COCCOCCOCCOc1cc(Nc2nccc(Oc3ccc(NC(=O)Nc4cc(C(C)(C)C)cc(C#N)c4OC)c4ccccc34)n2)cc(OC)c1` [Example 22, 1-(5-(tert-Butyl)-3-cyano-2-methoxyphenyl)-3-(4-((2-((3-methoxy-5-(2-(2-(2-methoxy-ethoxy)ethoxy)ethoxy)phenyl)amino)pyrimidin-4-yl)oxy)naphthalen-1-yl)urea], with 7.77; and `COCCNC(=O)c1cc(C(C)(C)C)cc(NC(=O)Nc2ccc(Oc3ccnc(Nc4cc(OC)cc(OCCOCCOCCOC)c4)n3)c3ccccc23)c1OC` [Example 43, 5-(tert-Butyl)-2-methoxy-3-(3-(4-((2-((3-methoxy-5-(2-(2-(2-methoxyethoxy)ethoxy)-ethoxy)phenyl)amino)pyrimidin-4-yl)oxy)naphthalen-1-yl)ureido)-N-(2-methoxyethyl)-benzamide], with 8.70. Then `COc1cc(Nc2cc(Oc3ccc(NC(=O)Nc4cc(C(C)(C)C)cc(NS(C)(=O)=O)c4OC)c4ccccc34)ccn2)cc(C(=O)NCCN2CCOCC2(C)C)c1` [85(l), 3-[[4-[[4-[[5-tert-Butyl-3-(methanesulfonamido)-2-methoxyphenyl]-carbamoylamino]-1-naphthyl]oxy]-2-pyridyl]amino]-N-[2-(3,3-dimethylmorpholin-4-yl)ethyl]-5-methoxybenzamide], with 8.55. For the compound `COCCOCCOCCOc1cc(Nc2cc(Oc3ccc(NC(=O)Nc4cc(C(C)(C)C)cc(C(=O)NC5COC5)c4OC)c4ccccc34)ccn2)cc(OC)c1` [Example 77, 5-(tert-Butyl)-2-methoxy-3-(3-(4-((2-((3-methoxy-5-(2-(2-(2-methoxyethoxy)ethoxy)ethoxy)-phenyl)amino)pyridin-4-yl)oxy)naphthalen-1-yl)ureido)-N-(oxetan-3-yl)benzamide], the pIC50 is 8.70. Regarding `COCCOCCOCCOc1cc(Nc2nccc(Oc3ccc(NC(=O)Nc4cc(C(C)(C)C)cc(C(=O)NCc5ccccc5)c4OC)c4ccccc34)n2)cc(OC)c1` [Example 38, N-Benzyl-5-(tert-butyl)-2-methoxy-3-(3-(4-((2-((3-methoxy-5-(2-(2-(2-methoxyethoxy)-ethoxy)ethoxy)phenyl)amino)pyrimidin-4-yl)oxy)naphthalen-1-yl)ureido)benzamide], the pIC50 is 8.20. `COc1cc(Nc2cc(Oc3ccc(NC(=O)Nc4cc(C(C)(C)C)cc(NS(C)(=O)=O)c4OC)c4ccccc34)ccn2)cc(C(=O)NCCN2CCCN(C)CC2)c1` [85(p), 3-[[4-[[4-[[5-tert-Butyl-3-(methanesulfonamido)-2-methoxyphenyl]-carbamoylamino]-1-naphthyl]oxy]-2-pyridyl]amino]-5-methoxy-N-[2-(4-methyl-1,4-diazepan-1-yl)ethyl]benzamide]: the negative logarithm of the IC50 (pIC50) was 8.15. The same measure for `COc1cc(Nc2nccc(Oc3ccc(NC(=O)Nc4cc(C(C)(C)C)cc(NS(C)(=O)=O)c4OC)c4ccccc34)n2)cc(OCCOCCC(=O)O)c1` [Example 31, 3-(2-(3-((4-((4-(3-(5-(tert-Butyl)-2-methoxy-3-(methylsulfonamido)phenyl)ureido)-naphthalen-1-yl)oxy)pyrimidin-2-yl)amino)-5-methoxyphenoxy)ethoxy)propanoic acid]: 8.14; for `COc1cc(CO)cc(Nc2cc(Oc3ccc(NC(=O)Nc4cc(C(C)(C)C)cc(NS(C)(=O)=O)c4OC)c4ccccc34)ccn2)c1` [84(f), 1-[5-tert-Butyl-3-(methanesulfonamido)-2-methoxyphenyl]-3-[4-[[2-[3-(hydroxymethyl)-5-methoxyanilino]-4-pyridyl]oxy]-naphthyl]urea]: 7.87; for `COc1cc(Nc2cc(Oc3ccc(NC(=O)Nc4cc(C(C)(C)C)cc(NS(C)(=O)=O)c4OC)c4ccccc34)ccn2)cc(C(=O)NCCN2CCC(O)CC2)c1` [85(w), 3-[[4-[[4-[[5-tert-Butyl-3-(methanesulfonamido)-2-methoxyphenyl]-carbamoylamino]-1-naphthyl]oxy]-2-pyridyl]amino]-N-[2-(4-hydroxy-1-piperidyl)ethyl]-5-methoxybenzamide]: 8.54.

Regarding `COc1cc(Nc2nccc(Oc3ccc(NC(=O)Nc4cc(C(C)(C)C)cc(NS(C)(=O)=O)c4OC)c4ccccc34)n2)cc(C(=O)NCCN2CCN(C)CC2)c1` [85(e), 3-[[4-[[4-[[5-tert-Butyl-3-(methanesulfonamido)-2-methoxyphenyl]-carbamoylamino]-1-naphthyl]oxy]pyrimidin-2-yl]amino]-5-methoxy-N-[2-(4-methylpiperazin-1-yl)ethyl]benzamide], the negative-log IC50 (pIC50) was 8.77.

With `CCNC(=O)c1cc(C(C)(C)C)cc(NC(=O)Nc2ccc(Oc3ccnc(Nc4cc(OC)cc(OCCOCCOCCOC)c4)n3)c3ccccc23)c1OC` [Example 41], the pIC50 is 8.35. Then `COCCOCCOCCOCCNC(=O)c1cc(Nc2cc(Oc3ccc(NC(=O)Nc4cc(C(C)(C)C)cc(NS(C)(=O)=O)c4OC)c4ccccc34)ccn2)cc(OC)c1` [85(v), 3-[[4-[[4-[[5-tert-Butyl-3-(methanesulfonamido)-2-methoxyphenyl]-carbamoylamino]-1-naphthyl]oxy]-2-pyridyl]amino]-5-methoxy-N-[2-[2-[2-(2-methoxyethoxy)ethoxy]ethoxy]-ethyl]benzamide], with 9.40; and `C#Cc1cc(Nc2nccc(Oc3ccc(NC(=O)Nc4cc(C(C)(C)C)cc(C(N)=O)c4OC)c4ccccc34)n2)cc(C(=O)NCCN2CCOCC2)c1` [85(g), 5-tert-Butyl-3-[[4-[2-[3-ethynyl-5-(2-morpholinoethylcarbamoyl)anilino]-pyrimidin-4-yl]oxy-1-naphthyl]carbamoylamino]-2-methoxy-benzamide], with 9.00. As to `COc1cc(Nc2nccc(Oc3ccc(NC(=O)Nc4cc(C(C)(C)C)cc(NS(C)(=O)=O)c4OC)c4ccccc34)n2)cc(C(=O)NCCCN2CCOCC2)c1` [85(f), 3-[[4-[[4-[[5-tert-Butyl-3-(methanesulfonamido)-2-methoxyphenyl]-carbamoylamino]-1-naphthyl]oxy]pyrimidin-2-yl]amino]-5-methoxy-N-(3-morpholinopropyl)-benzamide], the negative logarithm of the IC50 (pIC50) is 9.15. Consider `C#Cc1cc(Nc2cc(Oc3ccc(NC(=O)Nc4cc(C(C)(C)C)cc(NS(C)(=O)=O)c4OC)c4ccccc34)ccn2)cc(C(=O)NCCN2CCN(C)CC2)c1` [85(c), 3-[[4-[[4-[[5-tert-Butyl-3-(methanesulfonamido)-2-methoxyphenyl]-carbamoylaminol]-1-naphthyl]oxy]-2-pyridyl]amino]-5-ethynyl-N-[2-(4-methylpiperazin-1-yl)ethyl]benzamide], for which the pIC50 is 8.34.

As for `COCCOCCOCCOc1cc(Nc2nccc(Oc3ccc(NC(=O)Nc4cc(C(C)(C)C)cc(C(=O)NCC(=O)O)c4OC)c4ccccc34)n2)cc(OC)c1` [Example 44, 2-(5-(tert-Butyl)-2-methoxy-3-(3-(4-((2-((3-methoxy-5-(2-(2-(2-methoxyethoxy)ethoxy)-ethoxy)phenyl)amino)pyrimidin-4-yl)oxy)naphthalen-1-yl)ureido)benzamido)acetic acid], the negative-log IC50 (pIC50) is 7.06.

Values taken from patent US10435361B2, “Kinase inhibitors” (Topivert Pharma Limited, priority 2013, dated 2019).
